Patent US11649220B2 (DEMOTECH.INC., priority 2018, dated 2023)

Columns and labels:
[1] = system: golden hamsters (60% high-fat food, STZ induced); test: Golden hamster disease model, animal model induction group (16-week-old group): blood biochemical indexes and body weight; format: in vivo; conditions: for change rate of blood glucose %: 0.1 mL of 6.8 mg/mL DMSO solution + 0.25 mL whole milk by gavage once a day for 2 weeks; for change rate of body weight after deduction of DMSO blank %: DMSO blank deducted; for average body weight after administration/g / change of body weight/g / change rate of body weight %: after gavage once a day for 2 weeks; for HDL % / LDL % / total cholesterol % / triglyceride %: change rate, gavage once a day for 2 weeks
Experimental: (§1) Animals and feed: 1) 8-week-old male golden hamsters with a body weight range of 100±5 g were selected; 2) 60% high-fat food; 3) 30% high-fat food; 4) general feed: NRC standard feed, containing 5% fat, total calories 4200 kcal/kg.
Animal model induction group (16-week-old group): 1) fed with 60% high-fat food for 2 weeks under standard environment; 2) STZ intraperitoneal injection twice every two days, 50 mg/kg each time; 3) After STZ induction, the golden hamsters were continuous fed for 1 week; 4) Blood was taken from the ocular venous plexus, and the initial body weight, blood glucose, total cholesterol, LDL-c, HDL-c and triglyceride were measured, and the golden hamsters were grouped in parallel according to animal biochemical indicators, 8 in each group; 5) Gavage of compounds: 0.1 mL of solution of compound (concentration: 6.8 mg/mL, DMSO solution) and 0.25 mL of whole milk were mixed evenly and administrated by gavage once a day for 2 weeks; 6) Blank control: 0.1 mL of DMSO and 0.25 mL of whole milk were mixed evenly and administrated by gavage once a day for 2 weeks; 7) Observation time: 14 days later, blood was taken from the ocular venous plexus, and the body weight, blood glucose, total cholesterol, LDL-c, HDL-c and triglyceride were measured.
(§2) Instruments: Shimadzu UV-1750 spectrophotometer, clinical determination kit (Changchun Huili Biotechnology Co., Ltd.)
(§3) Determination of blood glucose: glucose oxidase method, kit
(§4) Determination of total cholesterol (COD-PAP method), kit
(§5) Determination of low density lipoprotein cholesterol (direct method), kit
(§6) Determination of triglyceride (GP-PAP method)
(§7) Determination of high density lipoprotein (direct method), kit

[2] = system: golden hamsters (high-fat food, STZ induced); test: Golden hamster disease model, animal model induction group (24-week-old group): blood biochemical indexes and body weight; format: in vivo
Excerpt: as §1
Animal model induction group (24-week-old group): After STZ induction, the golden hamsters were continuous fed with 30% high-fat food for 8 weeks, blood was taken from the ocular venous plexus, and the initial body weight, blood glucose concentration, total cholesterol, LDL-c, HDL-c and triglyceride were measured, and the golden hamsters were grouped in parallel according to animal biochemical indicators, 8 in each group; 5) Gavage of compounds: 0.1 mL of solution of compound (concentration: 6.8 mg/mL, DMSO solution) and 0.25 mL of whole milk were mixed evenly and administrated by gavage once a day for 2 weeks; 6) Blank control: 0.1 mL of DMSO and 0.25 mL of whole milk were mixed and administrated by gavage, once a day for 2 weeks; 6) Blank control: 0.1 mL of DMSO were mixed with 0.25 mL of whole milk, and administrated by gavage, once a day for 2 weeks; 7) 14 days later, blood was taken from the ocular venous plexus, and the body weight, blood glucose, total cholesterol, LDL-c, HDL-c and triglyceride were measured.
as §2, §3, §4, §5, §6, §7

[3] = system: Malondialdehyde (MDA) in serum; test: In vivo anti-lipid oxidation experiment (serum MDA, TBA method); set-up: inhibition rate %: concentration or dose not given beside the values; conditions: MAD lipid peroxidation in vivo; for inhibition rate %: relative to solvent DMSO and Chow averages; for avarage value of OD: serum, TBA method, 532 nm
Excerpt: Experimental principle: Malondialdehyde (MDA) in liposome degradation products could condense with thiobarbituric acid (TBA) to form a red product which has a maximum absorption peak at 532 nm. The spectrophotometer was used to measure the relative absorption value to calculate the antioxidant value.
Reagents: Malondialdehyde (MDA) test kit (article number: A003-1, […], Nanjing Jiancheng), glacial acetic acid of analytically pure grade.
Reagent preparations: 1) Reagent I: Reagent 1 in the kit was taken out from the refrigerator and subjected to natural warming until a transparent liquid is obtained; 2) Reagent II: 170 mL of double-distilled water was added to each bottle and mixed; 3) Reagent III: A dry powder in the kit was dissolved in 60 mL of double-distilled water at 90 to 100° C. After the dry powder was dissolved totally, 30 mL of glacial acetic acid was added and kept in dark place; 4) Standard: 10 nmol/mL tetraethoxypropane.
Experimental procedures: 1) Blank tube: To 2 mL centrifuge tube were added anhydrous ethanol (70 μl), Reagent I (70 μl), Reagent II (0.8 mL) and Reagent III (0.8 mL) in sequence; 2) Standard tube: To 2 mL centrifuge tube were added standard (70 μl), Reagent I (70 μl), Reagent 11 (0.8 mL) and Reagent III (0.8 mL) in sequence; 3) Measuring tube: To 2 mL centrifuge tube were added the serum to be tested and physiological saline (the total volume of serum and physiological saline is 70 μl), Reagent I (70 μl), Reagent II (0.8 mL) and Reagent III (0.8 mL) in sequence; 4) Control tubes: all samples are set up with corresponding control tubes. To a 2 mL centrifuge tube were added the serum to be tested and physiological saline (the total volume of serum and physiological saline is 70 μl), Reagent I (70 μl), Reagent II (0.8 mL) and 50% glacial acetic acid (0.8 mL) in sequence.
After the above reagents were added, the mixture was mixed homogenously. Then the mixture was left in the water bath at 95° C. for 60 minutes. The sample was centrifuged at 4000 rpm for 10 minutes. The supernatant was taken for the measurement of the OD value.
Experimental data processing: the MDA content in serum was calculated as follows: MDA=(OD valuemeasured−OD valuecontrol)/OD valuestandard*concentration of the standard Inhibition rate %=100−(ODsample-average value−average value of Chow)/(average value of the solvent DMSO−average value of Chow)*100

[4] = In vitro free radical inhibition test (DPPH method); conditions: 8 μL of 20 mmol/L compound in 1 mL DPPH 0.059 mg/mL ethanol, 60 min dark, 517 nm; for inhibition rate %: DPPH; for Relative inhibition ability on free radicals: inhibition rate of AGI1067 on DPPH defined as 100
Excerpt: 1. In Vitro Free Radical Inhibition Test (DPPH Method)
The single electron of DPPH radical has a strong absorption at […], and its alcohol solution is purple. In the presence of a free radical scavenger, the absorption of DPPH radical is weakened or disappeared for the reason that the free radical scavenger is paired with the single electron of DPPH radical, and the degree of discoloration is quantitatively related to the number of electrons DPPH radical receives. Therefore, a spectrophotometer can be used to quickly and quantitatively analyze the free radical scavenging rate of the compound.
1) 1 mL solution of DPPH in absolute ethanol (concentration: 0.059 mg/mL) was taken; 2) 8 μL of the compound to be tested (20 mmol/L) were added; 3) after mixing well, the resultant was kept in dark at room temperature for 60 minutes, 4) the absorbance of the sample at 517 nm was measured.

[5] = after gavage once a day for 2 weeks
[6] = change rate, gavage once a day for 2 weeks

SMILES | change rate of blood glucose % [1] | change rate of body weight after deduction of DMSO blank % [1] | average body weight after administration/g [1] | change of body weight/g [1] | change rate of body weight % [1] | HDL % [1] | LDL % [1] | total cholesterol % [1] | triglyceride % [1] | inhibition rate % [3] | avarage value of OD [3] | inhibition rate % [4] | Relative inhibition ability on free radicals [4] | further results
CC(O)c1cc(SSc2cc(C(C)O)c(O)c(C(C)(C)C)c2)cc(C(C)(C)C)c1O (stereo not shown) [Compound 5, 4,4′-disulfanediyl-bis(2-(tert-butyl)-6-(1-hydroxyethyl)phenol)] | 19.7% | −1.9% | 145.2 g | 10.6 g | 7.9% | 38.8% | −24.9% | −12.2% | −28.5% | 79.6% | 6.21 | 48.1% | 110.2 | change rate of blood glucode % ([2]; 0.1 mL of 6.8 mg/mL DMSO solution + 0.25 mL whole milk by gavage once a day for 2 weeks): 11.5%; change rate of body weight after deduction of DMSO blank % ([2]; DMSO blank deducted): −13.6%; change of body weight/g [2, 5]: -25.0 g; change rate of body weight % [2, 5]: −21.1%; HDL % [2, 6]: −69.2%; LDL % [2, 6]: −33.9%; total cholesterol % [2, 6]: 6.6%; triglyceride % [2, 6]: −65.8%; average body weight at 24 weeks/g ([2]; initial weight before administration): 118.1 g
CC(C)(Sc1cc(C(C)(C)C)c(O)c(C(C)(C)C)c1)Sc1cc(C(C)(C)C)c(O)c(C(C)(C)CCOC(=O)CCC(=O)O)c1 [Compound 11, 4-(3-(3-(tert-butyl)-5-((2-((3,5-di-tert-butyl-4-hydroxyphenyl)thio)propan-2-yl)thio)-2-hydroxyphenyl)-3-methylbutoxy)-4-oxobutanoic acid] | 35.3% | −5.5% | 140.9 g | 5.8 g | 4.3% | 49.7% | −8.1% | −0.4% | 8.7% | 44.7% | 7.56 | 19.9% | 45.5 | –
CC(=O)Oc1ccccc1C(=O)OCCC(C)(C)c1cc(SC(C)(C)Sc2cc(C(C)(C)C)c(O)c(C(C)(C)C)c2)cc(C(C)(C)C)c1O [Compound 13, 3-(3-(tert-butyl)-5-((2-((3,5-di-tert-butyl-4-hydroxyphenyl)thio)propan-2-yl)thio)-2-hydroxyphenyl)-3-methylbutyl 2-acetoxybenzoate] | −3.9% | −7.8% | 136.6 g | 2.6 g | 2.0% | 57.9% | −6.7% | −9.0% | −10.0% | 53.8% | 7.21 | 34.1% | 78.2 | –
CC(C)(Sc1cc(C(C)(C)C)c(O)c(C(C)(C)C)c1)Sc1cc(C(C)(C)C)c(O)c(C(C)(C)CCNC(=O)CCCCC2CCSS2)c1 (stereo not shown) [Compound 23, N-(3-(3-(tert-butyl)-5-((2-((3,5-di-tert-butyl-4-hydroxyphenyl)thio)propan-2-yl)thio)-2-hydroxyphenyl)-3-methylbutyl)-5-(1,2-dithiolan-3-yl)pentanamide] | 19.5% | −3.8% | 147.2 g | 8.3 g | 6.0% | 102.1% | −11.2% | −6.4% | 21.9% | 82.6% | 6.10 | 12.1% | 27.7 | –
